Test results as given in patent publication US20230141965A1, “TREATMENT OF INFECTIOUS DISEASES” (Durect Corporation, priority 2020, published 2023).

What was measured:
C57BL/6J mice = assay: Acute organ injury in mice challenged with lipopolysaccharide (LPS); assay type: in vivo; details: for health of kidney, lung, and liver tissues (sections stained with hematoxylin and eosin, light microscope): C57BL/6J mice, 50 mg/kg i.p. two hours before i.v. LPS 5 mg/kg, tissues collected at day 3, FIG. 1
Procedure: C57BL/6J mice, 21 week old, received an i.p. injection of 25HC3S sodium salt (50 mg/kg) or vehicle. Two hours later, mice were challenged with an intravenous injection of lipopolysaccharide (LPS) at 5 mg/kg. For vehicle-treated mice, the tissues, liver, lung, and kidney, were collected right before when animals met all criteria to be sacrificed. For mice treated with 25HC3S sodium salt, tissues were collected at the day 3, when 80% of vehicle-treated mice died. The tissue sections were stained with hematoxylin and eosin, examined under light microscope with magnification x 100.

mice = assay: Acute organ injury in mice given acetaminophen (APAP) injection; assay type: in vivo; details: for kidney, lung, and liver tissues: mice, 25 mg/kg with APAP injection (600 mg/kg APAP for 24hr), FIG. 2
Procedure: Normal: normal mice without treatment; Control: mice with 10% glucose and acetaminophen (APAP) injection (600 mg/kg APAP for 24hr); PG: mice with vehicle and APAP injection (600 mg/kg APAP for 24hr); PG+25HC3S: mice with 25HC3S (25 mg/kg) and APAP injection.

Compound	health of kidney, lung, and liver tissues (sections stained with hematoxylin and eosin, light microscope) (C57BL/6J mice)	kidney, lung, and liver tissues (mice)	health of kidney, lung, and liver tissues (sections stained with hematoxylin and eosin, light microscope) (C57BL/6J mice; listed as 25HCS)	protection of mice from lipopolysaccharide (LPS) (C57BL/6J mice; FIG. 1 legend, LPS 5 mg/kg i.v.)	protection of mice from acetaminophen (mice; FIG. 2 legend, 600 mg/kg APAP)
C[C@H](CCCC(C)(C)O)[C@H]1CC[C@H]2[C@@H]3CC=C4CC(OS(=O)(=O)[O-])CC[C@]4(C)[C@H]3CC[C@]12C.[Na+] (stereo partly drawn) [25HC3S sodium salt, 5-cholesten-3, 25-diol, 3-sulfate]	improved the health of kidney, lung, and liver tissues	improved kidney, lung, and liver tissues	–	–	–
C[C@H](CCCC(C)(C)O)[C@H]1CC[C@H]2[C@@H]3CC=C4C[C@@H](OS(=O)(=O)[O-])CC[C@]4(C)[C@H]3CC[C@]12C.[Na+] [25HC3S, 5-cholesten-3, 25-diol, 3-sulfate]	–	improved kidney, lung, and liver tissues	improved kidney, lung, and liver tissues	protected mice from lipopolysaccharide (LPS)	protected mice from acetaminophen
